Reference: PubChem BioAssay (NCI)
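Values below derive from 48-hour exposures of cells grown in 96-well plates, with endpoints linearly interpolated between the two concentrations bracketing the appropriate inhibition level. GI50 = concentration required for 50% inhibition of growth. TGI: total growth inhibition.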

Key:
Experiment in all cases: growth of human tumour cells (NCI), 48 h
ACHN renal = test system: ACHN renal
EKVX NSCLC = test system: EKVX NSCLC
LOX IMVI melanoma = test system: LOX IMVI melanoma
NCI-H23 lung = test system: NCI-H23 lung
NCI-H460 lung = test system: NCI-H460 lung
SK-MEL-2 melanoma = test system: SK-MEL-2 melanoma
SK-MEL-5 melanoma = test system: SK-MEL-5 melanoma
HL-60(TB) leukemia = test system: HL-60(TB) leukemia
MDA-MB-231 breast = test system: MDA-MB-231 breast
BT-549 breast = test system: BT-549 breast

Row | Structure (SMILES) | TGI (ACHN renal) | TGI (EKVX NSCLC) | TGI (LOX IMVI melanoma) | TGI (NCI-H23 lung) | TGI (NCI-H460 lung) | TGI (SK-MEL-2 melanoma) | TGI (SK-MEL-5 melanoma) | TGI (HL-60(TB) leukemia) | GI50 (ACHN renal) | GI50 (LOX IMVI melanoma) | GI50 (NCI-H23 lung) | GI50 (NCI-H460 lung) | GI50 (SK-MEL-2 melanoma) | GI50 (SK-MEL-5 melanoma) | GI50 (EKVX NSCLC) | GI50 (HL-60(TB) leukemia) | GI50 (MDA-MB-231 breast) | TGI (MDA-MB-231 breast) | GI50 (BT-549 breast) | TGI (BT-549 breast)
1 | COc1c(Sc2ccccc2)cc(Sc2ccccc2)c2cccnc12 | > 100 µM | > 100 µM | 42.7 µM | 62.1 µM | 54.5 µM | 42.6 µM | 30.5 µM |  |  |  |  |  |  |  |  |  |  |  |  | 
2 | CN1C(=O)C2C=CC1C1CCC2N(C)C1=O (centres undefined) |  | > 100 µM | > 100 µM | > 100 µM |  | > 100 µM | > 100 µM | > 100 µM |  |  |  |  |  |  |  |  |  |  |  | 
3 | CCCCN(CC)c1ncnc2ccc(Br)cc12 | 40.3 µM |  | 38.7 µM | 44.4 µM | 52.9 µM | > 100 µM | 33.4 µM |  | 14.5 µM | 17.9 µM | 18.8 µM | 17.9 µM | 29.5 µM | 16.1 µM |  |  |  |  |  | 
4 | COc1cc2c3c(ncc2c(OC)c1OC)-c1cc2c(cc1C3)OCO2 | 47.2 µM | 73.9 µM |  |  | > 100 µM | 45.3 µM | > 100 µM | 4.26 µM | 20.7 µM |  |  | > 100 µM | 11.7 µM | 54.1 µM | 17.2 µM | 0.0288 µM | 11.5 µM | 29.5 µM |  | 
5 | CCOC(=O)Nc1nc2cc(OCC)ccc2s1 | > 100 µM |  | > 100 µM | > 100 µM | > 100 µM | > 100 µM | > 100 µM | > 100 µM | > 100 µM | > 47.4 µM | > 100 µM | 8.02 µM | 16.3 µM | 8.44 µM |  | 4.85 µM | > 100 µM | > 100 µM | > 100 µM | > 100 µM
6 | COC(=O)[C@@]1(C)CCC[C@]2(C(=O)O)C3Cc4occc4[C@H](C)[C@@H]3CCC21 (some centres undefined) | > 100 µM | > 100 µM |  | > 100 µM | > 100 µM | > 100 µM | > 100 µM | > 100 µM |  |  |  |  |  |  |  |  |  | > 100 µM |  | > 100 µM
7 | CCCCN(CCCC)CCc1c(C)cc(C)c(CCN(CCCC)CCCC)c1O | > 100 µM |  | > 100 µM | 23.7 µM | 9.59 µM | 5.78 µM | 4.1 µM | 8.17 µM | 3.47 µM | 2.67 µM | 2.76 µM | 2.91 µM | 2.24 µM | 1.97 µM |  | 2.51 µM | 2.43 µM | 8.56 µM | 2.78 µM | 6.87 µM
8 | CC1=NOC(=O)C1N=Nc1ccc(Br)c(C)c1 (centres undefined) | 32 µM | 32 µM |  | 44.2 µM | 58.6 µM | 30.7 µM | 25.4 µM | 23.8 µM |  |  |  |  |  |  |  |  |  |  |  | 
9 | COc1ccc2ccccc2c1CN1CCOCCOCCN(Cc2c(OC)ccc3ccccc23)CCOCCOCC1 | > 100 µM | > 100 µM | > 100 µM | > 100 µM | > 100 µM | 97.4 µM | > 53.6 µM | 53.4 µM |  |  |  |  |  |  |  |  |  |  |  | 
10 | COC(=O)[C@H]1N[C@@H](C(=O)OC)C23CCC[C@H]2CC[C@]1(C(OC)OC)C3 | > 100 µM | > 100 µM | > 100 µM | > 100 µM | > 100 µM | > 100 µM | > 100 µM | > 100 µM |  |  |  |  |  |  |  |  |  |  |  | 
11 | Clc1ccc2c(c1)[nH]c1c2nc2sccn21 | > 100 µM | > 100 µM | > 100 µM | > 100 µM | > 100 µM | > 100 µM | > 100 µM | > 100 µM |  |  |  |  |  |  |  |  |  |  |  | 
12 | O=C(O)Cc1ccccc1CCc1ccccc1Cl |  | > 100 µM | > 100 µM | > 100 µM | > 100 µM | 91.7 µM | > 100 µM | > 100 µM |  |  |  |  |  |  |  |  |  |  |  | 
13 | CCN(CC)CCOc1c(OC)c(Br)cc2c(C)c(C(=O)OC)oc12 | 2.08 µM | 5.01 µM | 1.45 µM | 2.68 µM | 3.75 µM | 50 µM | 1.53 µM |  | 0.899 µM | 0.749 µM | 1.12 µM | 1.31 µM | 3.17 µM | 0.818 µM | 1.55 µM |  | 1.22 µM | 3.46 µM | 1.61 µM | 5.62 µM
14 | CCOC(=O)c1c2c(n(Cc3ccccc3)c1C)-c1nc(Cc3ccccc3)[nH]c1C(=O)C2=O | 3 µM | 3.27 µM | 3.17 µM | 3.59 µM | 4.22 µM | 4.13 µM | 3.06 µM |  | 1.64 µM | 1.78 µM | 1.82 µM | 1.96 µM | 1.69 µM | 1.69 µM | 1.84 µM |  | 1.37 µM | 2.67 µM | 1.43 µM | 2.99 µM
15 | CCCCCCCCCCCCCCCCCCNC(=O)OCC(CNS(=O)(=O)CCC[n+]1cccc2ccccc21)COC (centres undefined) | 29.9 µM | 65.7 µM |  | 5.6 µM | > 100 µM |  | 7.03 µM | > 100 µM |  |  |  |  |  |  |  |  |  | 4.05 µM |  | 5.41 µM
16 | O=C(CSc1nc(-c2ccccc2)c(-c2ccccc2)[nH]1)NNC(=S)Nc1ccccc1 | > 100 µM | > 100 µM | > 100 µM | > 100 µM | > 100 µM | > 100 µM | > 100 µM | > 100 µM |  |  |  |  |  |  |  |  |  |  |  | 
17 | Clc1ccc(-c2c(C3=NCCN3)nnn2-c2ccccc2)cc1 | > 100 µM | > 100 µM | > 100 µM | > 100 µM | > 100 µM | > 100 µM | > 100 µM | > 100 µM |  |  |  |  |  |  |  |  |  |  |  | 
18 | C[C@]12CC[C@@H](OC(=O)N(CCCl)N=O)C[C@@H]1CC[C@@H]1[C@@H]2CC[C@]2(C)C(=O)CC[C@@H]12 | 13.8 µM | > 43.7 µM | 22.1 µM | 67.2 µM | 1.75 µM | 38 µM | 19.5 µM |  | 0.487 µM | 5.6 µM | 15.3 µM | 0.247 µM | 17.1 µM | 3.93 µM | 6.5 µM |  | 13.5 µM | 29.8 µM | 14.2 µM | 33.2 µM
19 | CC(=O)Nc1ccc(/C=C2/NC(=S)N(/C=C3\C(=O)Oc4ccccc4C3=O)C2=O)cc1 | > 100 µM | > 100 µM | > 100 µM | > 100 µM | > 100 µM | > 100 µM | > 100 µM | > 100 µM |  |  |  |  |  |  |  |  |  | > 100 µM |  | 
